The text below walks through data of PMC7955127, “Preclinical small molecule WEHI-7326 overcomes drug resistance and elicits response in patient-derived xenograft models of human treatment-refractory tumors” (Cell Death & Disease, 2021).

SMILES strings stand for the structures.

Assay [1] has as its system SW480. Nature of the assay: Cell cycle analysis (G2/M arrest, PI staining, flow cytometry), SW480. It counts as cell-based, human. The conditions noted are these: SW480; for EC50: Homo sapiens, overnight incubation, PI staining, flow cytometry, mean of 3 ± SEM, read-out: EC50 (G2/M arrest). On the procedure:
Fig. 2 Antimitotic activity of WEHI-7326: cancer cell lines and effects on tubulin polymerization. a Dose-dependent antimitotic activity of WEHI-7326, nocodazol and taxol in tumor cell lines SW480 (colorectal) and MDA-MB-231 (breast). Data are presented as percentage of cells in G2/M after overnight incubation with increasing concentrations of inhibitors and PI staining followed by flow cytometry analysis. Mean average of 3 independent experiments ±SEM. b EC50 values (nM) for G2/M arrest on SW480 and MDA-MB-231 cell lines, given as mean average of 3 independent experiments ±SEM. c Western blot analysis of mitotic arrest in SW480 and MDA-MB-231 cells treated with EC50 concentrations of WEHI-7326 or Paclitaxel as marked by expression of phosho-S10 Histone H3 (p-HH3 S10), at different timepoints post treatment. Expression of β-actin provided as loading control. d Cell cycle analysis of LIM1899 cells 72 h post treatment with increasing concentrations of WEHI-7326 as measured by PI staining for DNA content followed by flow cytometry analysis. Sub-G1 represents apoptotic fractions and >4 N cell fractions of mitotic slippage. e Immunofluorescence confocal microscopy of tubulin polymerization in SW480 cells treated by various agents. Cells were incubated for 24 h with control (0.1% DMSO), nocodazole (1 μM), paclitaxel (1 μM), myoseverin B (1 μM) or WEHI-7326 (1 μM). Cells were fixed and stained with β-tubulin antibody (green) and DAPI (DNA; blue) and phalloidin (actin, red). Shown are single confocal sections and enlarged areas (3x) to highlight changes in microtubule network; scale bar = 20 μm. Representative images from 2 independent experiments. f Cellular tubulin polymerization assay in cells: SW480 cells were incubated overnight with paclitaxel, myoseverin B or WEHI-7326, then processed to detect fractions of polymerized (P) and soluble (S) tubulin by western blot analysis. Representative blot of 3 independent experiments. g Tubulin polymerization was assessed in vitro over time using a fluorescence-based tubulin polymerization assay (BK011P). Tubulin was incubated with control (DMSO), paclitaxel (3 μM), nocodazole (15 μM) and WEHI-7326 at indicated concentrations (in DMSO). Polymerization was measured by excitation at 360 nm and emission at 420 nm. Representative graph of 3 independent experiments performed in duplicates. […]
Cells in log growth were supplemented with fresh medium with either vehicle (control) or compound at the stated final concentrations. […] After 1 h incubation at room temperature in the dark, cells were analyzed on a FACScan (Becton and Dickinson) in CellQuest. The percentage of cells in each phase of the cell cycle was determined using ModFit software (Verity, http://www.vsh.com). Early and late apoptotic responses elicited by WEHI-7326 were assessed using Dead Cell Apoptosis Kit (ThermoFisher Scientific) with Annexin V FITC and PI following manufacturer’s instructions. Cells were incubated 24 h with 6-point, 4-fold titration of WEHI-7326, washed twice with cold 1X PBS, resuspended in 1X Annexin Binding Buffer, incubated with FITC Annexin V and PI for 15 mins at RT in the dark and subsequently analyzed by flow cytometry.
A general note: Flow cytometry measures light scatter and fluorescence of single cells or particles in a stream.

The next assay relates to MDA-MB-231. Nature of the assay: Cell cycle analysis (G2/M arrest, PI staining, flow cytometry), MDA-MB-231. It counts as cell-based. The conditions noted are these: Homo sapiens; MDA-MB-231; overnight incubation, PI staining, flow cytometry; mean of 3 ± SEM; read-out: EC50 (G2/M arrest). On the procedure:
Fig. 2 Antimitotic activity of WEHI-7326: cancer cell lines and effects on tubulin polymerization. a Dose-dependent antimitotic activity of WEHI-7326, nocodazol and taxol in tumor cell lines SW480 (colorectal) and MDA-MB-231 (breast). Data are presented as percentage of cells in G2/M after overnight incubation with increasing concentrations of inhibitors and PI staining followed by flow cytometry analysis. Mean average of 3 independent experiments ±SEM. b EC50 values (nM) for G2/M arrest on SW480 and MDA-MB-231 cell lines, given as mean average of 3 independent experiments ±SEM. c Western blot analysis of mitotic arrest in SW480 and MDA-MB-231 cells treated with EC50 concentrations of WEHI-7326 or Paclitaxel as marked by expression of phosho-S10 Histone H3 (p-HH3 S10), at different timepoints post treatment. Expression of β-actin provided as loading control. d Cell cycle analysis of LIM1899 cells 72 h post treatment with increasing concentrations of WEHI-7326 as measured by PI staining for DNA content followed by flow cytometry analysis. Sub-G1 represents apoptotic fractions and >4 N cell fractions of mitotic slippage. e Immunofluorescence confocal microscopy of tubulin polymerization in SW480 cells treated by various agents. […] Representative blot of 3 independent experiments. g Tubulin polymerization was assessed in vitro over time using a fluorescence-based tubulin polymerization assay (BK011P). […] Polymerization was measured by excitation at 360 nm and emission at 420 nm. […]
Cells in log growth were supplemented with fresh medium with either vehicle (control) or compound at the stated final concentrations. […] After 1 h incubation at room temperature in the dark, cells were analyzed on a FACScan (Becton and Dickinson) in CellQuest. The percentage of cells in each phase of the cell cycle was determined using ModFit software (Verity, http://www.vsh.com). Early and late apoptotic responses elicited by WEHI-7326 were assessed using Dead Cell Apoptosis Kit (ThermoFisher Scientific) with Annexin V FITC and PI following manufacturer’s instructions. […]

For assay [2], the system named is SW480. Put plainly: Cell growth inhibition assay, SW480. The conditions noted are these: SW480 colon cancer cell line in vitro. In kind it is cell-based, human. On the procedure:
Cells were plated at a density of between 500 to 5000 cells per well for adherent cell lines depending on doubling time, and 15,000 cells per well for lymphoblastic leukemia cell lines, in a 96-well plate in 200 μl of growth media. Plates were incubated overnight at 37 °C before adding the inhibitors. Inhibitors were serially diluted from the stock solutions in complete medium and added to the cells. Incubation in the presence of inhibitors was continued for […]. Cell viability was assessed by the AlamarBlue (Invitrogen) or CellTiterBlue/Glo (Promega) method according to manufacturer’s instructions. The curve fits and IC50 values were generated in PRISM (GraphPad, San Diego, CA).
a Chemical structures of the triazine-based anti-mitotics used in this study. b Dose-dependent antiproliferative activity of key derivatives and comparison with commonly used anti-mitotics in SW480 cell line: Data shown is cell viability (as measured by CellTiterGlo) after 72 h relative to untreated control cells. Shown is mean of 3 independent experiments performed in duplicate +/- SEM. c Dose-dependent cell cycle analysis of key derivatives of WEHI-7326 development in SW480 cell line. Data are presented as percentage of cells in G2/M or subG0 after 24 h incubation with titration of inhibitors as assessed by PI staining and flow cytometry. Mean average of 3 experiments +/- SEM. d Comparison of IC50 and EC50 values of triazine compounds and anti-mitotic drugs in SW480 cell line: inhibition of cellular proliferation and cell cycle arrest in G2/M. IC50 and EC50 values are the mean of 3 independent experiments run in duplicates +/- SEM (n.d. = not determined). e HepG2 cytotoxic assay: cell viability assay after 48 h, normalised to 0.4% DMSO (100% viability) and 2 μM bortezomib (0% viability). The data is the mean average of 2 experiments +/- SD.

The test system of the next assay is AH406 LUSC PDX. Nature of the assay: LUSC PDX model AH406. It counts as in vivo, NOD-SCID-IL2Rγc–/– mice. The conditions noted are these: WEHI-7326 20 mg/kg i.v. biweekly, docetaxel 10 mg/kg i.p. once. The procedure: (§1) LUSC PDXs were generated as described in[25]. PDXs at passage 4 were defrosted and washed with PBS before counting. 200,000 to 500,000 cells were then injected in a 50:50 PBS:Matrigel mix into the flanks of NOD-SCID-IL2Rγc–/– male mice. Tumors were measured twice weekly with calipers and treatment started when tumors were between 70–120 mm^3. Mice were assigned to treatment groups based on average tumor volume per group. Mice were culled when tumors reached a volume of 600 mm^3.

For the next assay, the system named is MH792 LUSC PDX. Nature of the assay: LUSC PDX model MH792. The conditions noted are these: MH792 PDX; WEHI-7326 20 mg/kg i.v. biweekly; docetaxel 10 mg/kg i.p. once. It counts as in vivo, NOD-SCID-IL2Rγc–/– mice. The procedure: as §1
Assay [3] concerns MDA-MB-231 LNA DRE (docetaxel resistant breast cancer) xenograft. Nature of the assay: Orthotopic MDA-MB-231 LNA-DRE xenograft. It counts as in vivo, Balb/c nude mice. The conditions noted are these: docetaxel 10 mg/kg weekly i.v., WEHI-7326 30 mg/kg biweekly i.v. On the procedure: LoVo (4 × 10^6), PC3 (3 × 10^6) or MDA-MB-231 LNA DRE (10^6) cells were collected by trypsination and injected with 50 μl 1:1 PBS:Matrigel (v/v) subcutaneously on the right flank of 18 female (LoVo), 40 male (PC3) or into 4th mammary fat pad of 40 female (MDA231) Balb/c nude mice. Tumor growth was monitored and average tumor size at commencement of dosing was 100 mm^3. Mice were randomized into 3 arms of each 5 (LoVo), 10 (PC3) or 12 (MDA23) mice respectively and treatment with vehicle (saline), WEHI-7326 (biweekly) or docetaxel (weekly) was administered via tail vein injection. Tumor volumes were measured at least twice weekly with calipers and the experiments were terminated when tumors in the control group started exceeding 1500 mm^3. For LoVo, both vehicle and 25 mg/kg WEHI-7326 groups were harvested 24 h, but 20 mg/kg WEHI-7326 group harvested 1 h post final dose. For PC3, docetaxel group was not harvested in an attempt to grow out resistant tumors.

The test system of another assay is 24 T TNBC PDX. Nature of the assay: TNBC PDX model 24T. In kind it is in vivo, NOD-SCID-IL2Rγc–/– mice. The conditions noted are these: 24 T PDX; docetaxel 10 mg/kg i.p. once; WEHI-7326 20 mg/kg i.v. biweekly. On the procedure:
(§2) Cohorts of about 30 female mice were seeded with thawed single cell suspensions of early passage human breast tumors (passage 2 or 3). Briefly, 150,000–250,000 cells were resuspended in 10 µl of transplantation buffer (50% fetal calf serum, 10% of a 0.04% trypan blue solution and 40% PBS) and growth-factor-reduced Matrigel [BD] at a ratio of 3:1, and injected into the cleared mammary fat pads of 3- or 4-week-old NOD-SCID-IL2Rγc–/– female mice. Mice were monitored for tumor development three times weekly and tumor size measured using digital Vernier calipers. Tumor volume was estimated by measuring the minimum and maximum tumor diameters using the formula: (minimum diameter)^2 x (maximum diameter)/2. Once tumors arose, mice were randomized into treatment arms. Treatment was initiated when the tumor volume reached 80–120 mm^3. Randomization and tumor measurements were managed using the Study Director software (v 3.0, studylog). Mice were sacrificed at the first measurement where tumor volume exceeded 600 mm^3, or if their health deteriorated for reasons other than disease progression or drug toxicity (censored event).
(§3) Mice were treated with either docetaxel (10 mg/kg; i.p.; once), cisplatin (4 mg/kg; i.p.; once) or WEHI-7326 (20 mg/kg; twice a week (Monday and Thursday); i.v.). Vehicle treated mice were administered with the vehicle for WEHI-7326. Docetaxel was resuspended at 2 mg/ml in PBS:Tween-80:ethanol = 90:5:5 (v/v/v). WEHI-7326 was resuspended at 2 mg/ml in saline.

A further assay deals with 322 T TNBC PDX. Nature of the assay: TNBC PDX model 322T. It counts as in vivo, NOD-SCID-IL2Rγc–/– mice. The conditions noted are these: 322 T PDX; docetaxel 10 mg/kg i.p. once; WEHI-7326 20 mg/kg i.v. biweekly. The procedure: as §2, §3

As to `COC(=O)Nc1nc2ccc(C(=O)c3cccs3)cc2[nH]1` [Nocodazol, nocodazole, reference compound], the EC50 in the assay with SW480 [1] turned out to be 0.0574 ± 0.0059 µM; in the assay with MDA-MB-231, 0.0372 ± 0.0072 µM.

Consider `CC(=O)O[C@H]1C(=O)[C@@]2(C)[C@H]([C@H](OC(=O)c3ccccc3)[C@]3(O)C[C@H](OC(=O)[C@H](O)[C@@H](NC(=O)c4ccccc4)c4ccccc4)C(C)=C1C3(C)C)[C@]1(OC(C)=O)CO[C@@H]1C[C@@H]2O` [Paclitaxel, paclitaxel, reference compound], for which the EC50 with SW480 [1] came to 0.0393 ± 0.0041 µM; in the assay on MDA-MB-231, 0.0056 ± 0.0031 µM.

Regarding `COc1ccc(CNc2nc(NCc3ccc(OC)cc3)nc(NN3CC(=O)NC3=O)n2)cc1` [compound 6], the “G2/M cell cycle arrest” value in the assay on SW480 [1] is on record as “strong G2/M cell cycle arrest”. The Concentration inhibiting proliferation result in the assay with SW480 [2] is “at or below micromolar concentration”.

As for `CC(=O)O[C@@]12CO[C@@H]1C[C@H](O)[C@@]1(C)C(=O)[C@H](O)C3=C(C)[C@@H](OC(=O)[C@H](O)[C@@H](NC(=O)OC(C)(C)C)c4ccccc4)C[C@@](O)([C@@H](OC(=O)c4ccccc4)[C@H]21)C3(C)C` [docetaxel, reference compound], the figures for the Median survival with AH406 LUSC PDX and with MH792 LUSC PDX were 24 days and 22 days, respectively. Besides, the “Tumor growth inhibition (TGI)” value in assay [3] was determined as 70%. Besides, the results for the Survival time with 24 T TNBC PDX and in the assay with 322 T TNBC PDX were 11 days and 7 days, respectively.
